Results published in ChEMBL document CHEMBL1255322, “In vivo therapeutic effect of gatifloxacin on BALB/c mice infected with Nocardia brasiliensis” (Antimicrob Agents Chemother, 2008).
≈ marks a conversion by molar mass, not a printed value. Calls of active or inactive are those of the source. No cut-off for these calls is given here.

Experiments:
[1] = tested on: Nocardia brasiliensis; test: Antimicrobial activity against Nocardia brasiliensis HUJEG-1 by broth macrodilution method; type: functional
[2] = Cmax in BALB/c mouse serum at 100 mg/kg, sc TID for 4 weeks by HPLC method; type: ADME, organism-based; parameters: dose 100 mg/kg, route subcutaneous
[3] = tested on: Nocardia brasiliensis; test: Antimicrobial activity against Nocardia brasiliensis HUJEG-1 infected in BALB/c mouse assessed as decrease in number of lesions on foot-pad at 100 mg/kg, sc TID for 4 weeks; type: functional, organism-based; parameters: dose 100 mg/kg
[4] = Cmax in BALB/c mouse serum at 25 mg/kg, sc TID for 4 weeks by HPLC method; type: ADME, organism-based; parameters: dose 25 mg/kg, route subcutaneous
[5] = tested on: Nocardia brasiliensis; test: Antimicrobial activity against Nocardia brasiliensis HUJEG-1 infected in BALB/c mouse assessed as decrease in number of lesions on foot-pad at 25 mg/kg, sc TID for 4 weeks; type: functional, organism-based; parameters: dose 25 mg/kg

MIC [1] [µg/mL] | SMILES | Activity [1] | also measured
 | COc1c(N2C[C@@H]3CCCN[C@@H]3C2)c(F)cc2c(=O)c(C(=O)O)cn(C3CC3)c12 | Active | 
 | C[C@H]1NCc2cc(-c3ccc4c(=O)c(C(=O)O)cn(C5CC5)c4c3OC(F)F)ccc21 | Active | 
0.25 (≈ 0.666 µM) | COc1c(N2CCNC(C)C2)c(F)cc2c(=O)c(C(=O)O)cn(C3CC3)c12 (stereo not drawn) [GATIFLOXACIN] |  | Cmax [2]: 18000 ng/mL; Activity [3]: Active
0.12 (≈ 0.356 µM) | CC(=O)NC[C@H]1CN(c2ccc(N3CCOCC3)c(F)c2)C(=O)O1 [LINEZOLID] |  | Cmax [4]: 50000 ng/mL; Activity [5]: inactive
